Series [1] deals with C57BL/6 mice. Kind of series: Glucose tolerance in mice. The format is in vivo. The conditions noted are these: PP peptide 25 nmol/kg with CCK‐8 25 nmol/kg and glucose 18 mmol/kg i.p.; n = 6. Here is the method:
Acute in vivo studies were conducted in groups (n = 6) of 4‐month‐old male C57BL/6 mice (Envigo, Huntington, UK). All mice were maintained on standard rodent chow (10% fat, 30% protein, and 60% carbohydrate; Trouw Nutrition, Northwich, UK), and drinking water provided ad libitum. Mice were housed individually and kept in a temperature‐controlled environment (22 ± 2°C), with a 12‐h light/dark cycle. Experiments were carried out in accordance with the UK Animal Scientific Procedures Act 1986 as well as being approved by Ulster University Animal Ethics Review Committee (AWERB) committee and protected by the UK Home Office Animal project license number PPL2902, approved on April 26, 2021. Acute effects of test peptides on food intake were tested in overnight (16 h) fasted mice. Briefly, fasted mice were administered an intraperitoneal (i.p.) injection of saline vehicle (0.9% (w/v) NaCl) alone or in combination with test peptides (each at 25, 75, or 200 nmol/kg bw) and cumulative food intake measured at regular intervals, to assess the pharmacodynamic profile of the test peptides. For food intake studies, mice were provided with preweighed rodent maintenance diet in their food hopper at t = 0 min, which was then re‐weighed at each timepoint with all due care taken to account for any wastage or crumbling of the food pellets. In this regard, the investigator was present at all times during the 180‐min test period to ensure accuracy and consistency in all measurements. Furthermore, effects of PP or related peptides (25 nmol/kg bw) on glucose homeostasis and insulin secretion were evaluated in overnight fasted mice following i.p. injection of glucose alone (18 mmol/kg bw) or in combination with PP peptides (each at 25 nmol/kg bw). […] Blood glucose was measured immediately using a hand‐held Ascencia Contour blood glucose meter (Bayer Healthcare, Newbury, Berkshire, UK). […]

The test system of series [2] is C57BL/6 mice. Kind of series: Glucose‐stimulated plasma insulin in mice. The format is in vivo. The conditions noted are these: peptide 25 nmol/kg with glucose 18 mmol/kg i.p., versus glucose control; n = 6. Here is the method:
Acute in vivo studies were conducted in groups (n = 6) of 4‐month‐old male C57BL/6 mice (Envigo, Huntington, UK). All mice were maintained on standard rodent chow (10% fat, 30% protein, and 60% carbohydrate; Trouw Nutrition, Northwich, UK), and drinking water provided ad libitum. Mice were housed individually and kept in a temperature‐controlled environment (22 ± 2°C), with a 12‐h light/dark cycle. Experiments were carried out in accordance with the UK Animal Scientific Procedures Act 1986 as well as being approved by Ulster University Animal Ethics Review Committee (AWERB) committee and protected by the UK Home Office Animal project license number PPL2902, approved on April 26, 2021. Acute effects of test peptides on food intake were tested in overnight (16 h) fasted mice. Briefly, fasted mice were administered an intraperitoneal (i.p.) injection of saline vehicle (0.9% (w/v) NaCl) alone or in combination with test peptides (each at 25, 75, or 200 nmol/kg bw) and cumulative food intake measured at regular intervals, to assess the pharmacodynamic profile of the test peptides. For food intake studies, mice were provided with preweighed rodent maintenance diet in their food hopper at t = 0 min, which was then re‐weighed at each timepoint with all due care taken to account for any wastage or crumbling of the food pellets. In this regard, the investigator was present at all times during the 180‐min test period to ensure accuracy and consistency in all measurements. Furthermore, effects of PP or related peptides (25 nmol/kg bw) on glucose homeostasis and insulin secretion were evaluated in overnight fasted mice following i.p. injection of glucose alone (18 mmol/kg bw) or in combination with PP peptides (each at 25 nmol/kg bw). […] Blood glucose was measured immediately using a hand‐held Ascencia Contour blood glucose meter (Bayer Healthcare, Newbury, Berkshire, UK). For plasma insulin, blood was collected in chilled fluoride/heparin‐coated microcentrifuge tubes (Sarstedt, Numbrecht, Germany) and centrifuged using a Beckman microcentrifuge (Beckman Instruments, Galway, Ireland) for 10 min at 12,000 rpm. Plasma was separated and stored at −20°C, until determination of plasma insulin by radioimmunoassay.[23]

The subject of series [3] is C57BL/6 mice. Kind of series: Acute food intake in overnight fasted mice. The class given is in vivo. The conditions noted are these: i.p., overnight fasted mice. Here is the method:
Acute in vivo studies were conducted in groups (n = 6) of 4‐month‐old male C57BL/6 mice (Envigo, Huntington, UK). All mice were maintained on standard rodent chow (10% fat, 30% protein, and 60% carbohydrate; Trouw Nutrition, Northwich, UK), and drinking water provided ad libitum. Mice were housed individually and kept in a temperature‐controlled environment (22 ± 2°C), with a 12‐h light/dark cycle. Experiments were carried out in accordance with the UK Animal Scientific Procedures Act 1986 as well as being approved by Ulster University Animal Ethics Review Committee (AWERB) committee and protected by the UK Home Office Animal project license number PPL2902, approved on April 26, 2021. Acute effects of test peptides on food intake were tested in overnight (16 h) fasted mice. Briefly, fasted mice were administered an intraperitoneal (i.p.) injection of saline vehicle (0.9% (w/v) NaCl) alone or in combination with test peptides (each at 25, 75, or 200 nmol/kg bw) and cumulative food intake measured at regular intervals, to assess the pharmacodynamic profile of the test peptides. For food intake studies, mice were provided with preweighed rodent maintenance diet in their food hopper at t = 0 min, which was then re‐weighed at each timepoint with all due care taken to account for any wastage or crumbling of the food pellets. In this regard, the investigator was present at all times during the 180‐min test period to ensure accuracy and consistency in all measurements. Furthermore, effects of PP or related peptides (25 nmol/kg bw) on glucose homeostasis and insulin secretion were evaluated in overnight fasted mice following i.p. injection of glucose alone (18 mmol/kg bw) or in combination with PP peptides (each at 25 nmol/kg bw).

Series [4] in a line: In vitro DPP‐4 degradation. The format is in vitro ADME, human. The conditions noted are these: isolated enzyme; peptide 50 μg with purified human DPP‐4 (5 μL, 0.01 U/L), 37°C, 8 h; stopped with 10% (v/v) trifluoroacetic acid; rp‐HPLC C‐18, UV 214 nm; peaks by MALDI‐MS; read-out: % intact peptide after 8 h DPP‐4 incubation. As for the experimental part: PP peptides (50 μg) were incubated at 37°C for 0–8 h with 5 μL of purified human DPP‐4 enzyme (0.01 U/L, Sigma‐Aldrich, Gillingham, UK). Degradation reactions were terminated via the addition of 10 μL 10% (v/v) trifluoroacetic acid/water solution. Reaction mixes were separated by reverse phase rp‐HPLC using a Phenomenex C‐18 analytical column (250 × 4.6 mm^2) with UV absorbance detection at 214 nm (ThermoQuest SpectraSystem UV2000 detector). HPLC peaks of interest were collected and analyzed by MALDI‐TOF MS on a Perseptive Biosystems Voyager‐DE Biospectrometry (Hertfordshire, UK).

Starred links: 1 amine or outer side, 2 acyl side, 3 side chain; linkers in the order of their positions; H or OH if unused. Residues, ends and D or L forms follow the SMILES beside them. Groups on a side chain read outwards from the residue. *: point of attachment. γGlu = O=C(O)[C@H](CCC(=O)[*:2])N[*:1]; Palmitoyl = CCCCCCCCCCCCCCCC(=O)* A value given as a limit tells only on which side of the number the result lay.

With `CCCCCCCCCCCCCCCC(=O)N[C@@H](CCC(=O)NCCCC[C@H](NC(=O)[C@H](C)NC(=O)[C@H](CC(N)=O)NC(=O)[C@H](CC(=O)O)NC(=O)CNC(=O)[C@@H]1CCCN1C(=O)[C@H](Cc1ccc(O)cc1)NC(=O)[C@@H](NC(=O)[C@@H]1CCCN1C(=O)[C@H](CCC(=O)O)NC(=O)[C@@H]1CCCN1C(=O)[C@@H]1CCCN1C(=O)[C@H](C)N)C(C)C)C(=O)N1CCC[C@H]1C(=O)N[C@@H](CCC(=O)O)C(=O)N[C@@H](CCC(N)=O)C(=O)N[C@@H](CCSC)C(=O)N[C@@H](C)C(=O)N[C@@H](CCC(N)=O)C(=O)N[C@@H](Cc1ccc(O)cc1)C(=O)N[C@@H](C)C(=O)N[C@@H](C)C(=O)N[C@@H](CC(=O)O)C(=O)N[C@@H](CC(C)C)C(=O)N[C@@H](CCCNC(=N)N)C(=O)N[C@@H](CCCNC(=N)N)C(=O)N[C@@H](Cc1ccc(O)cc1)C(=O)N[C@H](C(=O)N[C@@H](CC(N)=O)C(=O)N[C@@H](CCSC)C(=O)N[C@@H](CC(C)C)C(=O)N[C@H](C(=O)N[C@@H](CCCNC(=N)N)C(=O)N1CCC[C@H]1C(=O)N[C@@H](CCCNC(=N)N)C(=O)N[C@@H](Cc1ccc(O)cc1)C(N)=O)[C@@H](C)O)[C@@H](C)CC)C(=O)O` [[P^3,K^13Pal]PP] (H-APPEPVYPGDNAK([γGlu-Palmitoyl])PEQMAQYAADLRRYINMLTRPRY-NH2; N-terminus assumed), the “effect on CCK‐8 benefit on glucose disposal” value with C57BL/6 mice [1] is recorded as “mildly impair the overall glucose‐lowering action of CCK‐8”. Besides, the “glucose‐induced insulin secretion (plasma insulin)” value in the series with C57BL/6 mice [2] is reported as “slightly decreasing (p = <0.05 to 0.01)”. Further, the “food intake in overnight fasted mice, summary in discussion” value in the series on C57BL/6 mice [3] is recorded as “retained impressive effects to restrict food intake”. Further, the remaining at 8 h in series [4] is > 99%.

The record behind these values is publication PMC11627468, “Novel enzyme‐resistant pancreatic polypeptide analogs evoke pancreatic beta‐cell rest, enhance islet cell turnover, and inhibit food intake in mice” (Biofactors (Oxford, England), 2024).
